Laboratory results from patent US20050043260A1, “Wnt as a factor for cardiac myogenesis” (BAYLOR COLLEGE OF MEDICINE, priority 2003, published 2005).

What was measured:
Type in all cases: cell-based
[1] = system: TCF-dependent transcription; assay: TCF-dependent transcription, TOPFLASH luciferase assay in P19CL6 cells; conditions: DMSO treatment for 4 days
Experimental: Cells were seeded and cultured as above and transfected 1 day after plating, using in serum-free αMEM for 6 hr. Transfections contained 0.5 μg TOPFLASH or 0.1 μg pRL-CMV as the co-transfected control. Medium containing 10% FBS with or without DMSO changed 6 and 48 hr after transfection. Cells were lysed 4 days after DMSO treatment and luciferase assayed using the Dual-Luciferase system (Promega). Firefly luciferase activity, indicating TCF-dependent transcription, was normalized to the Renilla luciferase activity of each extract. TOPFLASH activity induced by Wnt3A CM versus control CM was measured after 18 hr. Activity of the GSK-3βA9 expression vector was corroborated by transient transfection in 293T cells: cells were passaged at a 1:2.5 dilution into 24-well dishes, and TOPFLASH, pRL-CMV, and PGK-Wnt3A were co-transfected by calcium-phosphate precipitation along with pcDNA3-GSK-3βA9-HA versus the empty vector control (Jordan et al., 1996). Twenty-four hrs after transfection, the medium was changed to Dulbecco's modified Eagle's medium (DMEM) supplemented with 0.2% BSA. Forty-eight hrs after transfection, cells were lysed and luciferase activities were assayed.

β-catenin = β-catenin and phospho-β-catenin Western blot / immunostaining in differentiating cells
Experimental: (§1) Cells were seeded on glass cover slips and cultured with or without DMSO for 3 days. Cells were fixed with 4% paraformaldehyde and penneablized with 0.2% Triton X-100 for 5 min. To detect phosphorylated β-catenin, cells were incubated overnight with rabbit antibody to phoshpo-β-catenin (Ser33/Ser37/Thr4l; Cell Signaling) in Tris-buffered saline, 3% bovine serum albumin, then for 1 hr with goat antibody to rabbit IgG conjugated with Alexa Fluor 488 (Molecular Probes). Immunostaining for sarcomeric myosin heavy chains (MHC) was performed using fluorescein isothiocyanate-conjugated MF20 antibody (Oh et al., 2001). Nuclei were counterstained with DAPI.
Cells were seeded on 6-well dishes (1.67×10^6 cells/well) and cultivated with or without 1% DMSO and 500 ng/ml Fx/FC chimeric protein. After 3 days, cells were harvested in phosphate-buffered saline in 4 C, centrifuged, and resuspended in 20 mM Tris-HCl, pH 7.5, 25 mM sodium fluoride, 1 mM EDTA, containing a protease inhibitor cocktail (Roche Molecular Biochemicals). Cells were incubated on ice for 20 min, followed by 30 strokes in a Dounce homogenizer, and centrifuged at 100,000×g for 30 min. The supernatant was collected as the soluble, cytoplasmic fraction and electrophoresised in 10% SDS-polyacrylamide gels. […]

P19CL6 cells [2] = assay: Cardiac-specific gene expression by QRT-PCR in differentiating P19CL6 cells; parameters: expression of Nkx2.5, GATA4, Tbx5, BMP2, BMP4: dose or concentration left out as unconfirmed
Experimental: (§2) Cells were grown on 10 cm dishes in α-minimal MEM; Invitrogen) supplemented with 10% fetal bovine serum (FBS) (Hyclone), streptomycin. To induce differentiation, cells were seeded at a 1:40 dilution with α-MEM, DMSO. For each experiment, cardiomyocyte differentiation was apparent in the control spontaneous beating, starting day 9 to 10. To obtain stable transformants incorporating GSK-vector control, cells were transfected using Lipofectamine2000 (Invitrogen) and medium containing 500 μg/ml Geniticin (Invitrogen). After 10-14 day, 60 colonies were picked and screened by RT-PCR. To detect exogenous GSK-3β selectively, the 5′ primer corresponded to the N terminus and the 3′ primer to the H. influenza hemagglutinin epitope tag.
RNA was isolated using TRIzol (Invitrogen). RNA (0.1 μg) was subjected to quantitative RT-PCR using the TaqMan One-step RT-PCR Master Mix Biosystems); the RT and PCR were run sequentially using a 7700 Sequence Detector (Applied Biosystems). Copy number for each transcript was expressed relative to that of glyceraldehyde-3-phosphate dehydrogenase (GAPDH), used as a constitutive control. RT-PCR for FGF8 and β-actin was done as described by Lee et al., 2000).

P19CL6 cells [3] = assay: Spontaneous beating of differentiating cells
Experimental: as §2

P19CL6 cells [4] = assay: Sarcomeric MHC immunostaining (MF20-positive cells); parameters: dose or concentration left out as unconfirmed; conditions: LiCl, day 12
Experimental: as §1

| SMILES | increase in luciferase activity (TCF-dependent transcriptional activity) [1] [fold] | phosphorylated β-catenin (β-catenin; DMSO treatment for 3 days, immunoblotting and immunocytochemistry) | soluble (cytosolic) β-catenin level (β-catenin; DMSO, day 3, Western blot) | time to expression of Nkx2.5, GATA4, MEF2C, and Tbx5 as early stage markers (P19CL6 cells [2]; 1% DMSO treatment, QRT-PCR) [days] | Wnt3A and Wnt8A induced as early as (P19CL6 cells [2]; after DMSO treatment, expression greatest on day 3) [days] | spontaneous beating visible (P19CL6 cells [3]; 1% DMSO treatment) [days] | expression of Nkx2.5, GATA4, Tbx5, BMP2, BMP4 (P19CL6 cells [2]; d 5, QRT-PCR) | effect on each of the early cardiac markers and on sarcomeric MHC (P19CL6 cells [2]; in the absence of DMSO) | MF20-positive cells (P19CL6 cells [4]) | spontaneous beating (P19CL6 cells [3]; treated alone, without DMSO) |
| --- | --- | --- | --- | --- | --- | --- | --- | --- | --- | --- |
| C[S+](C)[O-] [DMSO] | 9 | decreased | accumulation of soluble β-catenin | 3 to 8 | 2 | 9 to 10 |  |  |  |  |
| [Cl-].[Li+] [LiCl] |  |  |  |  |  |  | significantly increased | inductive effect | significantly increased | did not show spontaneous beating |
